The subject of one data set is Newcastle disease virus. The experiment in a line: microbe, parasite or virus in culture. The format is cell-based. The settings on record: avian paramyxovirus 1, in Gallus gallus.
The nature of another data set: in vitro. The settings on record: chicken, chick embryo fibroblasts.

Molecules are shown by their SMILES. ≈ marks a conversion by molar mass, not a printed value. Where a name gives a salt, the structure may show the parent alone.

`O=C(OC1CCCC1)C12CCCC(C1)C1CCC2C1` (centres unmarked) came in with an MIC in the data set on Newcastle disease virus of 40 µg/mL (≈ 152 µM). The MCC in the data set “in vitro” worked out at 200 µg/mL.

In turn, `O=C(OC1CCCCC1)C12CCCC(C1)C1CCC2C1` (centres unmarked) came in with an MIC with Newcastle disease virus of 200 µg/mL (≈ 724 µM). This compound also yielded an MCC in the data set “in vitro” of 200 µg/mL.

`O=C(OC1CC2CC1C1CCCC21)C12CCCC(C1)C1CCC2C1` (centres unmarked): the MIC in the data set on Newcastle disease virus came to 200 µg/mL (≈ 609 µM). For the same compound, in “in vitro”, the MCC amounted to 1000 µg/mL.

In the data set with Newcastle disease virus, `COC(=O)C12CCCC(C1)C1CCC2C1` (centres unmarked) [CH3] gave an MIC of 200 µg/mL (≈ 960 µM). Further, the MCC in “in vitro” was determined as 200 µg/mL.

Compound `NC12CC3CC(CC(C3)C1)C2` [adamantylamine hydrochloride, reference compound] registered an MIC with Newcastle disease virus of 250 µg/mL. This compound yielded an MCC in the data set “in vitro” of 250 µg/mL.

`CCCCOC(=O)C12CCCC(C1)C1CCC2C1` (centres unmarked) [n-C4 H9] showed an MIC with Newcastle disease virus of 40 µg/mL (≈ 160 µM). The compound further yielded an MCC in the data set “in vitro” of 200 µg/mL.

On to `CCCCCCCCOC(=O)C12CCCC(C1)C1CCC2C1` (centres unmarked) [n-C8 H17], for which the MIC with Newcastle disease virus is 200 µg/mL (≈ 653 µM). Besides, the MCC in “in vitro” turned out to be 1000 µg/mL.
